# Results as given in ChEMBL document CHEMBL5726052, “Substituted triazoles useful as Axl inhibitors” (2019).
# Target: T1, Tyrosine-protein kinase receptor UFO (Homo sapiens, UniProt P30530)
# T1 sequence (P30530 whole entry): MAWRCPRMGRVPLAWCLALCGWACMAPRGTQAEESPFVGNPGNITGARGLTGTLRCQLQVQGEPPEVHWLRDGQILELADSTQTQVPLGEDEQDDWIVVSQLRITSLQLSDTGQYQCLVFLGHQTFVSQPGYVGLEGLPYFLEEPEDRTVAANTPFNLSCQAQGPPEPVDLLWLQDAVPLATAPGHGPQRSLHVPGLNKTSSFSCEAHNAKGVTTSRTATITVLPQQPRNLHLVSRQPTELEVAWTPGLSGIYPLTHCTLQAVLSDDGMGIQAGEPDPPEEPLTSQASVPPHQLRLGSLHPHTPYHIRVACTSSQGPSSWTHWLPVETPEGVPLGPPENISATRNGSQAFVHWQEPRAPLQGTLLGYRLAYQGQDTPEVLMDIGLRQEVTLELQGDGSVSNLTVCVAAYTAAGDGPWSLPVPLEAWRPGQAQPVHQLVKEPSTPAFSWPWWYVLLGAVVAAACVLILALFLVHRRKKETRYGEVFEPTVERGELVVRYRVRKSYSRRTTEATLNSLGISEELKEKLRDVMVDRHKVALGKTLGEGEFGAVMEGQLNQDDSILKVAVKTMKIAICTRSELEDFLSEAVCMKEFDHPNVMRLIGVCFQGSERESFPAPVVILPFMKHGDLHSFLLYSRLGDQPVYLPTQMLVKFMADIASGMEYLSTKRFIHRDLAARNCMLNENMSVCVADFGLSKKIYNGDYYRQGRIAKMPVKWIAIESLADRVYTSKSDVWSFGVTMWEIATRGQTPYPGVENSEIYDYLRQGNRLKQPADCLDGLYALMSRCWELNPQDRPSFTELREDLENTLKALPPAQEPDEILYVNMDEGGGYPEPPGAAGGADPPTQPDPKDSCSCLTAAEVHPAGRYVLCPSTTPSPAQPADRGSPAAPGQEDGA
# Test: PHOSPHO-AKT IN-CELL WESTERN ASSAY: The resulting chemiluminescence was read with a Luminomitor within 10 minutes to minimize changes in signal intensity. After reading the chemiluminescence, the cells were washed 1× with wash buffer and 1× with PBS by plate washer. The plate was tapped onto paper towels to remove excess liquid from wells and air-dried at ambient temperature for 5 minutes.
smiles,measurement,value
Nc1nc(Nc2ccc(OCCN3CCCCC3)cc2)n(-c2ccccc2)n1,IC50,> 20 µM
